What was measured:
CD8 cells = assay: Ex vivo CTL generation with peptide-loaded Drosophila cells; assay type: cell-based, human; conditions: for frequency of CTL generation: normal donors, summary of Table 7; for CTL activity elicited by single epitope on Drosophila cells: donor #60, peptide added alone, lysis on JY cells, vs control HBc peptide
Excerpt: Human CTLs from healthy subjects were immunized in vitro against tyrosinase, MART-1 and gp100 when loaded separately on Drosophila APCs and evaluated for lysis on JY cells (FIG. 4). […] Melanoma-specific CTLs from healthy subjects were induced using the full stimulation/re-stimulation protocol and tested for their ability to lyse Jurkat cells loaded with each of the of the peptides used in the stimulations (FIG. 5). […]. […] One in which the multiple peptides were loaded onto individual Drosophila cells and mixed before the primary stimulation (combo mix), or the multiple peptides were mixed and then loaded onto the Drosophila APCs (combo load).
All of the peptides were synthesized, given an identification number (PRI#) and evaluated for the ability to generate CTLs ex vivo utilizing the same method we employed for melanoma-associated, T cell peptide epitopes. CD8 cells were isolated from normal donors to determine the ability to routinely generate CTLs ex vivo with Drosophila cells loaded with known CTL peptide epitopes.
Standard ^51Cr-release assays were performed to determine CTL effector cell recognition of melanoma-associated peptide epitopes loaded onto T2 cells. […] 0.1mCi of ^51Cr was added and incubated at 37° C. in a water bath. […] The cells were pulsed with the appropriate peptide(s) at 20 μg/mL for thirty minutes. 50 μL was added to each 96-well plate each containing CD8 effector cells at 10, 2, 0.4, and 0.08×10^6/mL, which was incubated at 37° C. for six hours, spun and harvested for supernatant.
To extend the ability to raise CTLs to other tumor antigens present in a wide variety of other cancers we have selected published and novel sequences to tumor antigens common to several different tumor types.

HLA-A2.1 molecule = target: T1, HLA-A2.1 molecule (Homo sapiens, UniProt P04439, D140Y/D185E/D98H/E176V/E277Q/G131W/G231S/I119V/I121R/I166T/I218V/L300P/L318F/N151K/N90K/P208A/P217A/Q86G/Q94H/R138H/R169H/T345S); assay: Peptide binding on Drosophila cells expressing HLA-A2.1
T1 construct: expressed in transfected cells; host or cells: Drosophila melanogaster Schneider S2 cells (ATCC CRL 10974), pRmHa-3 vector, CuSO4 induction

HTB-77/A2.1 cell line = assay: 51Cr-release lysis after IFNγ pretreatment; assay type: cell-based, human; conditions: 500 U/ml for twenty-four hours prior to 51Cr-release assay
Experimental: (§1) The cells were treated with 500 U/ml of IFNγ (specific activity of 25 ng/ml) for twenty-four hours prior to the initiation of the ^51Cr-release assay. […] To determine the effect of this dose of IFNg on the surface expression of both HLA-A2.1 and HER-2, a FACS analysis was performed to determine the levels of these molecules after both twenty-four and forty-eight hours of induction. FIG. 18, Panels A and B depict the FACS analysis results. […] This would explain why there is an enhance killing of the HTB-77/A2.1 cells in the presence of IFNγ. An up-regulation of this particular molecule would result in more efficient processing of the HER-2 molecule, allowing better presentation of the peptides of interest

HER-2 = assay: FACS analysis of surface expression after IFNγ induction; assay type: cell-based, human
Experimental: as §1

HLA-A2.1 = assay: as above; assay type: cell-based, human; conditions: HLA-A2.1 transfected HTB-77 cells, similar treatment protocol
Experimental: as §1

TAP-1 = assay: Microarray DNA chip analysis of mRNA levels after IFNγ induction; assay type: cell-based, human; conditions: HTB-77/A2.1 cells after IFNγ induction
CD8+ T cells = assay: HLA-A2.1 tetramer staining of HER-2 peptide-specific CTLs; assay type: cell-based, human; conditions: donor 262, after four-week ex vivo stimulation protocol
Experimental: The cells were labeled with FITC- or PE conjugated monoclonal antibodies by incubation at 4° C. for 30 minutes in FACS buffer (1% BSA, 0.02% NaN3 in PBS), followed by a wash in the same buffer. Cells were fixed in 0.5% formaldehyde prior to data acquisition and analysis on a FACScan flow cytometer (Becton Dickinson) with its CellQuest software. Nonspecific staining was measured with the same secondary antibody used to label purified primary antibodies, or an isotype-matched control when the primary antibodies were directly labeled. Tetrameric staining was performed with HLA-A2.1 specific HIVgag tetrameric molecules (Beckman Coulter) harboring the sequence [sequence] […] PE-labeled tetrameric HLA-A2.1-peptide complexes were used in conjunction with fluorescein isothiocyanate (FITC)-labeled anti-human CD8a (BD PharMagin) monoclonal antibodies to stain epitope-specific CD8+ T cells as described in package insert. Samples were analyzed by two-color flow cytometry on a Becton Dickinson FACScan, and gated CD8+ T cells were examined for staining with tetrameric HLA-A2.1-peptide complexes.

[1] = test system: breast adenocarcinoma cell line (ATCC; HTB-131) transfected with HLA-A2.1; assay: Tumor lysis by HER-2 peptide-specific CTL effectors; assay type: cell-based, human; conditions: cell line transfected with HLA-A2.1

| Substance | frequency of CTL generation (CD8 cells) | binding to the HLA-A2.1 molecule on transfected Drosophila cells (HLA-A2.1 molecule) | CTL activity elicited by single epitope on Drosophila cells (CD8 cells) | further results |
| --- | --- | --- | --- | --- |
| CLTSTVQLV [Peptide 826] | highest frequency of CTL generation |  |  |  |
| ELVSEFSRM [Peptide 863] | highest frequency of CTL generation | weak to moderate binders |  |  |
| IFNγ: interferon gamma used to pretreat tumor cell lines at 500 U/ml |  |  |  | lysis of HLA-A2.1 transfected cell line (HTB-77/A2.1 cell line): enhanced lysis; HER-2 surface expression (HER-2; HLA-A2.1 transfected HTB-77 cells, similar treatment protocol): neither HER-2 nor HLA-A2.1 demonstrated an increase; HER-2 surface expression (HER-2; HTB-77 cells, twenty-four and forty-eight hours after induction): no enhancement; HLA-A2.1 surface expression (HLA-A2.1): neither HER-2 nor HLA-A2.1 demonstrated an increase; level of TAP-1 expression (mRNA); also HLA-DM and -DR, Cathepsin S and D and Caspase 5 (TAP-1): increase in the level of TAP-1 expression |
| ITDQVPFSV [Peptide 817] |  |  | CTL activity was elicited |  |
| VMAGVGSPYV [Peptide 861] | highest frequency of CTL generation | weak to moderate binders |  | peptide-specific CTLs, tetramer-positive (CD8+ T cells): 15.1%; lysis of tumor cell line by CTLs specific for the peptide [1]: could lysis this tumor cell line |
| YMNGTMSQV [Peptide 689] |  |  | CTL activity was elicited |  |

Source: patent publication US9222070B2, “Cell therapy method for the treatment of tumors” (Janssen Pharmaceuticals, Inc., priority 2001, dated 2015)
